Reference: a melting point compilation (Tetko et al.)

SMILES	melting point
COCC(C)c1c(O)c2c(c(OC)c1OC)C1(C)CCCC(C)(C)C1C(=O)C2=O (stereo not given)	90 to 92 °C
CCn1c(C)nc([N+](=O)[O-])c1I	210 to 212 °C
CC(C)(C)c1ccc(CSc2cnn(C(C)(C)C)c(=O)c2Cl)cc1	112 °C
N#Cc1ccccc1OC1CCOCC1	51 to 55 °C
O=c1[nH][nH]c(=O)c2cc3c(cc12)CCC3	310 °C
O=C(Oc1cccc(N=Nc2cccc(OC(=O)c3ccccc3)c2)c1)c1ccccc1	180 °C
CCCCNc1ccccc1	-12 °C
Clc1ncnc2c1cnn2-c1ccccc1	126 to 128 °C
N#Cc1c(OCC(F)(F)F)cccc1OCC(F)(F)F	116 °C
Cc1cc(-c2ccc(N=C=O)c(C)c2)ccc1N=C=O	71 °C
Cc1nc(-c2ccc(CO)cc2)no1	131 to 132 °C
Nc1nc(N)nc(NC2CC2)n1	225 °C
CC(=NOCc1cccc(C(=O)O)c1)c1ccc(Cl)cc1	154 to 157 °C
OCc1ccc(-n2cccn2)cc1	76 to 80 °C
CC(C)c1ccncc1	-54.9 °C
CN(C)NN=C1N=CN=C1C(N)=O	205 °C
Cc1ccccc1N=O	73.5 °C
CCCCCCCCCCCCCCCCCCCCCCCCCC(=O)OC	63.8 °C
CC(C)CS	-145 °C

SMILES	melting point
CC(=O)c1ccc(-c2ccc(C(C)=O)cc2)cc1	192 to 196 °C
Cc1ccc([N+](=O)[O-])cc1I	61 °C
CC(=O)NC(N)=O	218 °C
O=[N+]([O-])c1cc[nH]n1	173 to 175 °C
c1ccc2c(c1)NCCN2	99 °C
O=C1c2ccccc2CC2C=Cc3ccccc3N12 (stereo not given)	91 °C
CCOC(=O)c1sc(-c2ccccn2)nc1CBr	102 °C
CC(C)(SC(=O)N1CCCCC1)c1ccccc1	39.1 °C
Cc1ccc(OP2(=S)Oc3ccc(Cl)cc3Sc3cc(Cl)ccc3O2)c(C)c1	149 °C
O=[N+]([O-])c1cnc2ccccc2c1O	> 345 °C
Cn1c([N+](=O)[O-])cnc1C=Cc1ccnc(N)n1	234 °C
Brc1cc2c(cc1Br)Oc1ccccc1O2	158 °C
COc1ccc([N+](=O)[O-])c(Cl)n1	78 to 80 °C
COc1cc(C=O)c([N+](=O)[O-])cc1OC	133 °C
CC(=O)c1nc2ccccc2s1	109 to 112 °C
COc1ccccc1C(=O)c1cc2c(cc1Br)OCCO2	95 to 97 °C
CC(=O)CO	-17 °C
O=S(=O)(c1ccc(N=C=S)cc1)N1CCCCC1	126 to 127 °C

Other lines, results leading:

melting point	SMILES
97.5 °C	CCOC(=O)c1coc(Cl)n1
286 to 288 °C	C[C@](N)(CO)C(=O)O
69 °C	O=C(O)C(O)C(F)(F)F (stereo not given)
85.5 °C	C#CC[C@H](NC(=O)OC(C)(C)C)C(=O)O
-9 °C	CC(C)(C)SC(C)(C)C
119 °C	CCCOC(=O)C1=C(C)NC(C)=C(C(=O)OCCC)C1c1ccccc1
156 °C	CC(=O)Nc1ccc(Br)cc1F
101 °C	Nc1ncccc1C=O
112 to 114 °C	O=C(O)CCCCCCCCCCCC(=O)O
62 °C	CCCCCCCCCCCCCCCCCCSSCCCCCCCCCCCCCCCCCC
230 °C	CNC1=CC(=O)c2ccccc2C1=O
267 to 269 °C	Cc1noc(-c2ccc(C(=O)O)cc2)n1
104 °C	CC(C)(C)SC1(C#N)CC1(C#N)SC(C)(C)C (stereo not given)
190 to 192 °C	O=S1(=O)CC(O)C(Br)C1 (stereo not given)
30.5 °C	C=CCc1ccc(OC(C)=O)c(OC)c1
218 °C	Nc1ncnc2c1cnn2CCO
157 °C	O=c1nc2ccccc2nc(C(F)(F)F)c1NNc1cccnc1
244 to 247 °C	Cn1c(-c2ccc(Cl)cc2)cnc1S
